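Step 1: Grow cells in 96-well plates. Step 2: Expose to compound for 48 hours at 5 concentrations. Step 3: Interpolate endpoints linearly; if unreached, use highest concentration. At the TGI there is no net growth.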
Assays:
Experiment in all cases: NCI anticancer screen, dose series, 48 h
786-0 renal = system: 786-0 renal
A498 renal = system: A498 renal
A549 NSCLC = system: A549 NSCLC
ACHN renal = system: ACHN renal
BT-549 breast = system: BT-549 breast
CAKI-1 renal = system: CAKI-1 renal
CCRF-CEM leukemia = system: CCRF-CEM leukemia
COLO 205 colon = system: COLO 205 colon
DU-145 prostate = system: DU-145 prostate
EKVX NSCLC = system: EKVX NSCLC
HCC-2998 colon = system: HCC-2998 colon
HCT-116 colon = system: HCT-116 colon
HCT-15 colon = system: HCT-15 colon
HL-60(TB) leukemia = system: HL-60(TB) leukemia
HOP-62 NSCLC = system: HOP-62 NSCLC
HOP-92 NSCLC = system: HOP-92 NSCLC
HS 578T breast = system: HS 578T breast
HT29 colon = system: HT29 colon
IGROV1 ovarian = system: IGROV1 ovarian
K-562 leukemia = system: K-562 leukemia
KM12 colon = system: KM12 colon
LOX IMVI melanoma = system: LOX IMVI melanoma
M14 melanoma = system: M14 melanoma
MALME-3M melanoma = system: MALME-3M melanoma
MCF7 breast = system: MCF7 breast
MDA-MB-231 breast = system: MDA-MB-231 breast
MDA-MB-435 = system: MDA-MB-435
MDA-N = system: MDA-N
MOLT-4 leukemia = system: MOLT-4 leukemia
NCI-H226 lung = system: NCI-H226 lung
NCI-H23 lung = system: NCI-H23 lung
NCI-H460 lung = system: NCI-H460 lung
NCI-H522 lung = system: NCI-H522 lung
NCI/ADR-RES ovarian = system: NCI/ADR-RES ovarian
OVCAR-3 ovarian = system: OVCAR-3 ovarian
OVCAR-4 ovarian = system: OVCAR-4 ovarian
OVCAR-5 ovarian = system: OVCAR-5 ovarian
OVCAR-8 ovarian = system: OVCAR-8 ovarian
PC-3 prostate = system: PC-3 prostate
RPMI-8226 leukemia = system: RPMI-8226 leukemia
RXF 393 renal = system: RXF 393 renal
SF-268 CNS = system: SF-268 CNS
SF-295 CNS = system: SF-295 CNS
SF-539 CNS = system: SF-539 CNS
SK-MEL-2 melanoma = system: SK-MEL-2 melanoma
SK-MEL-28 melanoma = system: SK-MEL-28 melanoma
SK-MEL-5 melanoma = system: SK-MEL-5 melanoma
SN12C renal = system: SN12C renal
SNB-19 CNS = system: SNB-19 CNS
SNB-75 CNS = system: SNB-75 CNS
SW-620 colon = system: SW-620 colon
T-47D breast = system: T-47D breast
U251 CNS = system: U251 CNS
UACC-257 melanoma = system: UACC-257 melanoma
UACC-62 melanoma = system: UACC-62 melanoma
UO-31 renal = system: UO-31 renal
SK-OV-3 ovarian = system: SK-OV-3 ovarian
SR leukemia = system: SR leukemia
TK-10 renal = system: TK-10 renal

## CC1(C)OC1COc1c2occc2cc2ccc(=O)oc12 (configuration not stated)
786-0 renal
  TGI: > 100 µM
A498 renal
  TGI: > 100 µM
A549 NSCLC
  TGI: > 100 µM
ACHN renal
  TGI: > 100 µM
BT-549 breast
  TGI: > 100 µM
CAKI-1 renal
  TGI: > 100 µM
CCRF-CEM leukemia
  TGI: > 100 µM
COLO 205 colon
  TGI: > 100 µM
DU-145 prostate
  TGI: > 100 µM
EKVX NSCLC
  TGI: > 100 µM
HCC-2998 colon
  TGI: > 100 µM
HCT-116 colon
  TGI: > 100 µM
HCT-15 colon
  TGI: > 100 µM
HL-60(TB) leukemia
  TGI: > 100 µM
HOP-62 NSCLC
  TGI: > 100 µM
HOP-92 NSCLC
  TGI: > 100 µM
HS 578T breast
  TGI: > 100 µM
HT29 colon
  TGI: > 100 µM
IGROV1 ovarian
  TGI: > 100 µM
K-562 leukemia
  TGI: > 100 µM
KM12 colon
  TGI: > 100 µM
LOX IMVI melanoma
  TGI: > 100 µM
M14 melanoma
  TGI: > 100 µM
MALME-3M melanoma
  TGI: > 100 µM
MCF7 breast
  TGI: > 100 µM
MDA-MB-231 breast
  TGI: > 100 µM
MDA-MB-435
  TGI: > 100 µM
MDA-N
  TGI: > 100 µM
MOLT-4 leukemia
  TGI: > 100 µM
NCI-H226 lung
  TGI: > 100 µM
NCI-H23 lung
  TGI: > 100 µM
NCI-H460 lung
  TGI: > 100 µM
NCI-H522 lung
  TGI: > 100 µM
NCI/ADR-RES ovarian
  TGI: > 100 µM
OVCAR-3 ovarian
  TGI: > 100 µM
OVCAR-4 ovarian
  TGI: > 100 µM
OVCAR-5 ovarian
  TGI: > 100 µM
OVCAR-8 ovarian
  TGI: > 100 µM
PC-3 prostate
  TGI: > 100 µM
RPMI-8226 leukemia
  TGI: > 100 µM
RXF 393 renal
  TGI: > 100 µM
SF-268 CNS
  TGI: > 100 µM
SF-295 CNS
  TGI: > 100 µM
SF-539 CNS
  TGI: > 100 µM
SK-MEL-2 melanoma
  TGI: > 100 µM
SK-MEL-28 melanoma
  TGI: > 100 µM
SK-MEL-5 melanoma
  TGI: > 100 µM
SN12C renal
  TGI: > 100 µM
SNB-19 CNS
  TGI: > 100 µM
SNB-75 CNS
  TGI: > 100 µM
SW-620 colon
  TGI: > 100 µM
T-47D breast
  TGI: > 100 µM
U251 CNS
  TGI: > 100 µM
UACC-257 melanoma
  TGI: > 100 µM
UACC-62 melanoma
  TGI: > 100 µM
UO-31 renal
  TGI: > 100 µM

## O=C1CCCCC1CN1CCCCC1 (configuration not stated)
786-0 renal
  TGI: > 100 µM
A498 renal
  TGI: > 100 µM
A549 NSCLC
  TGI: > 100 µM
ACHN renal
  TGI: > 100 µM
BT-549 breast
  TGI: > 100 µM
CAKI-1 renal
  TGI: > 100 µM
CCRF-CEM leukemia
  TGI: > 100 µM
COLO 205 colon
  TGI: > 100 µM
DU-145 prostate
  TGI: > 100 µM
EKVX NSCLC
  TGI: > 100 µM
HCC-2998 colon
  TGI: > 100 µM
HCT-116 colon
  TGI: > 100 µM
HCT-15 colon
  TGI: > 100 µM
HL-60(TB) leukemia
  TGI: > 100 µM
HOP-62 NSCLC
  TGI: > 100 µM
HOP-92 NSCLC
  TGI: > 100 µM
HS 578T breast
  TGI: > 100 µM
HT29 colon
  TGI: > 100 µM
IGROV1 ovarian
  TGI: > 100 µM
K-562 leukemia
  TGI: > 100 µM
KM12 colon
  TGI: > 100 µM
LOX IMVI melanoma
  TGI: > 100 µM
M14 melanoma
  TGI: > 100 µM
MALME-3M melanoma
  TGI: > 100 µM
MCF7 breast
  TGI: > 100 µM
MDA-MB-231 breast
  TGI: > 100 µM
MDA-MB-435
  TGI: > 100 µM
MDA-N
  TGI: > 100 µM
MOLT-4 leukemia
  TGI: > 100 µM
NCI-H226 lung
  TGI: > 100 µM
NCI-H23 lung
  TGI: > 100 µM
NCI-H460 lung
  TGI: > 100 µM
NCI-H522 lung
  TGI: 4.42 µM
NCI/ADR-RES ovarian
  TGI: > 100 µM
OVCAR-3 ovarian
  TGI: > 100 µM
OVCAR-4 ovarian
  TGI: > 100 µM
OVCAR-5 ovarian
  TGI: > 100 µM
OVCAR-8 ovarian
  TGI: > 100 µM
PC-3 prostate
  TGI: > 100 µM
RXF 393 renal
  TGI: > 100 µM
SF-268 CNS
  TGI: > 100 µM
SF-295 CNS
  TGI: > 100 µM
SF-539 CNS
  TGI: > 100 µM
SK-MEL-2 melanoma
  TGI: > 100 µM
SK-MEL-28 melanoma
  TGI: > 100 µM
SK-MEL-5 melanoma
  TGI: > 100 µM
SK-OV-3 ovarian
  TGI: > 100 µM
SN12C renal
  TGI: > 100 µM
SNB-19 CNS
  TGI: > 100 µM
SNB-75 CNS
  TGI: > 100 µM
SR leukemia
  TGI: > 100 µM
SW-620 colon
  TGI: > 100 µM
TK-10 renal
  TGI: > 100 µM
U251 CNS
  TGI: > 100 µM
UACC-62 melanoma
  TGI: > 100 µM
UO-31 renal
  TGI: > 100 µM

From PubChem BioAssay (NCI)
